Assay results published in US7521536B2, “Glutamate transporter associated protein” (The Johns Hopkins University School of Medicine, priority 1999, dated 2009).

Columns and labels:
[1] = system: GTRAP3-18; experiment: retinoic acid regulation of GTRAP3-18 and EAAC1-mediated glutamate transport in HEK293 cells; format: cell-based
Text: Human GTRAP3-18 (JWA protein) was originally identified as a retinoic acid responsive gene. […] The loss of transport activity is not due to changes in EAAC1 protein level (FIG. 9A) or the cellular membrane localization of EAAC1 protein by retinoic acid as examined by fluorescent microscopy. To confirm that loss of transport activity was specifically due to GTRAP3-18 and not by other factors induced by retinoic acid or direct effects on EAAC1, a truncated EAAC1 cDNA, lacking the last 93 amino acids, was constructed. The truncation corresponded to the region used as bait in yeast two-hybrid screening, and was not able to interact with GTRAP3-18. Nevertheless, after transient expression in HEK293 cells, the truncated EAAC1 transported glutamate. […] Thus, the loss of transport activity by retinoic acid was the result of GTRAP3-18 induction. […] This could reflect lack of natural inhibition of the truncated protein EAAC1 by endogenous GTRAP3-18—results similar to the effects of GTRAP3-18 antisense treatment (FIG. 9E).

[2] = target: T1, Rho (Homo sapiens, UniProt P61586); experiment: guanine nucleotide exchange assay (GTPγS binding to small G proteins); format: biochemical; settings: GST-RhoA, GST-Cdc42 and GST-Rac, 10 min at 30° C.
T1 construct: made in house; host or cells: bacterial cells
T1 sequence (P61586 whole entry): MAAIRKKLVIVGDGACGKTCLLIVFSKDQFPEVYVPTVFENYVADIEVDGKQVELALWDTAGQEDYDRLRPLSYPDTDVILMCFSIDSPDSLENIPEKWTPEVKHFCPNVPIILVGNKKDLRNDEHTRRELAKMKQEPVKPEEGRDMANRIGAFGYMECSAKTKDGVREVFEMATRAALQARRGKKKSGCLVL
Protocol: Guanine nucleotide exchange assay. Small G proteins GST-RhoA, GST-CDC42 and GST-Rac were expressed in bacterial cells and affinity purified to ˜80% purity using a glutathione column. Twenty pmoles of each protein were incubated with 100 pmoles GTPγS for 10 min at 30° C. with varying concentrations of full-length GTRAP4-48 or p115. The binding reactions were filtered through BA-85 nitrocellulose and the amount of GTPγS bound to small G protein was quantitated by scintillation counting of the dried filters. The amount of GTPγS that bound to GST-RhoA, GST-Cdc42 and GST-Rac in the presence of full-length GTRAP4-48 or p115 was measured.

| Molecule | non-toxic dose range [1] [µM] | guanine nucleotide exchange activity [2] |
| --- | --- | --- |
| CC1=C(/C=C/C(C)=C/C=C/C(C)=C/C(=O)O)C(C)(C)CCC1 [Retinoic acid, retinoic acid] | 1 to 10 |  |
| p115: RhoGEF that selectively activates Rho (protein) MEDFARGAASPGPSRPGLVPVSIIGAEDEDFENELETNSEEQNSQFQSLEQVKRRPAHLMALLQHVALQFEPGPLLCCLHADMLGSLGPKEAKKAFLDFYHSFLEKTAVLRVPVPPNVAFELDRTRADLISEDVQRRFVQEVVQSQQVAVGRQLEDFRSKRLMGMTPWEQELAQLEAWVGRDRASYEARERHVAERLLMHLEEMQHTISTDEEKSAAVVNAIGLYMRHLGVRTKSGDKKSGRNFFRKKVMGNRRSDEPAKTKKGLSSILDAARWNRGEPQVPDFRHLKAEVDAEKPGATDRKGGVGMPSRDRNIGAPGQDTPGVSLHPLSLDSPDREPGADAPLELGDSSPQGPMSLESLAPPESTDEGAETESPEPGDEGEPGRSGLELEPEEPPGWRELVPPDTLHSLPKSQVKRQEVISELLVTEAAHVRMLRVLHDLFFQPMAECLFFPLEELQNIFPSLDELIEVHSLFLDRLMKRRQESGYLIEEIGDVLLARFDGAEGSWFQKISSRFCSRQSFALEQLKAKQRKDPRFCAFVQEAESRPRCRRLQLKDMIPTEMQRLTKYPLLLQSIGQNTEEPTEREKVELAAECCREILHHVNQAVRDMEDLLRLKDYQRRLDLSHLRQSSDPMLSEFKNLDITKKKLVHEGPLTWRVTKDKAVEVHVLLLDDLLLLLQRQDERLLLKSHSRTLTPTPDGKTMLRPVLRLTSAMTREVATDHKAFYVLFTWDQEAQIYELVAQTVSERKNWCALITETAGSLKVPAPASRPKPRPSPSSTREPLLSSSENGNGGRETSPADARTERILSDLLPFCRPGPEGQLAATALRKVLSLKQLLFPAEEDNGAGPPRDGDGVPGGGPLSPARTQEIQENLLSLEETMKQLEELEEEFCRLRPLLSQLGGNSVPQPGCT |  | specific guanine nucleotide exchange activity for Rho |
